pIC50: −log10 of the molar value.
What was measured:
[1] = target: T1, 5-hydroxytryptamine receptor 1B (Homo sapiens, UniProt P28222); assay: Binding affinity towards 5-hydroxytryptamine 1B receptor by displacement of [3H]5-HT.
[2] = target: 5-hydroxytryptamine receptor 2A (Homo sapiens, UniProt P28223); assay: Binding affinity towards 5-hydroxytryptamine 2A receptor by displacement of [3H]ketanserin
[3] = target: T2, 5-hydroxytryptamine receptor 1A (Homo sapiens, UniProt P08908); assay: Binding affinity towards 5-hydroxytryptamine 1A receptor by displacement of [3H]8-OH-DPAT.
T2 sequence (P08908 whole entry): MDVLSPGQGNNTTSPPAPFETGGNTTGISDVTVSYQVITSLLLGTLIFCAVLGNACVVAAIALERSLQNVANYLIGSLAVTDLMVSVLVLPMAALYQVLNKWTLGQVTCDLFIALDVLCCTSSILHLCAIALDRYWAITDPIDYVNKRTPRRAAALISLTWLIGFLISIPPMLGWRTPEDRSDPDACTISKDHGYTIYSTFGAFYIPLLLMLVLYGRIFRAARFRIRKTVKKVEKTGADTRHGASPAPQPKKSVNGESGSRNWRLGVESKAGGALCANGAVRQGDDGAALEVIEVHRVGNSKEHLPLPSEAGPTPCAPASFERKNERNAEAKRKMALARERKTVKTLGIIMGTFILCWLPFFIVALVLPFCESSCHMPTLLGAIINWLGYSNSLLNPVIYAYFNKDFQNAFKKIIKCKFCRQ

[4] = target: T3, 5-hydroxytryptamine receptor 2C (Homo sapiens, UniProt P28335); assay: Compound was evaluated for the binding affinity towards 5-hydroxytryptamine 2C receptor by displacement of [3H]-Ketanserin
T3 sequence (P28335 whole entry): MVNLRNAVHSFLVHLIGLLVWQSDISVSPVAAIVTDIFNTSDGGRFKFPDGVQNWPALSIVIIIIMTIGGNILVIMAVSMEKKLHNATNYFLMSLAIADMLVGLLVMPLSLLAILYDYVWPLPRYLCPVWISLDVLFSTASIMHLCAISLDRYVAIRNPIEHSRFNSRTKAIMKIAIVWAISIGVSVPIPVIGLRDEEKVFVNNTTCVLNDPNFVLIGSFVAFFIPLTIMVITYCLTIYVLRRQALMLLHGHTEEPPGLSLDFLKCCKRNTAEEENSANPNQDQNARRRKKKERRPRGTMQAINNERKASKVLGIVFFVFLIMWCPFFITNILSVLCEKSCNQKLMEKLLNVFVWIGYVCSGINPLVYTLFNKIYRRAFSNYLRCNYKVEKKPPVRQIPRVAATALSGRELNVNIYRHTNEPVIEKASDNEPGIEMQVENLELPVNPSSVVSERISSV

D(1A) dopamine receptor [5] = target: T4, D(1A) dopamine receptor (Homo sapiens, UniProt P21728); assay: Compound was evaluated for the binding affinity towards Dopamine receptor D1 by displacement of […].
T4 sequence (P21728 whole entry): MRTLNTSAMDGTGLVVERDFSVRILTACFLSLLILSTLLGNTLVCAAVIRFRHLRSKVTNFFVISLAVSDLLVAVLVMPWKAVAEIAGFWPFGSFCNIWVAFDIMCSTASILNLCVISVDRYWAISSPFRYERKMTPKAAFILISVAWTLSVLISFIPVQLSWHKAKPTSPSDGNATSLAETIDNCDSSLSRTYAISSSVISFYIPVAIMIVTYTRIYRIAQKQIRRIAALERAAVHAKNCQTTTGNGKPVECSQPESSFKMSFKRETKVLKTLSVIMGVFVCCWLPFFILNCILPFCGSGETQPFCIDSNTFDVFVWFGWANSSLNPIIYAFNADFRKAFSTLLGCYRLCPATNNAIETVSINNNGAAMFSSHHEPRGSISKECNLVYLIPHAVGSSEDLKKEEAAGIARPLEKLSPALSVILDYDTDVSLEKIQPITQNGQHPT

D(2) dopamine receptor [6] = target: T5, D(2) dopamine receptor (Homo sapiens, UniProt P14416); assay: Binding affinity towards Dopamine receptor D2 by displacement of [3H]-Raclopride.
T5 sequence (P14416 whole entry): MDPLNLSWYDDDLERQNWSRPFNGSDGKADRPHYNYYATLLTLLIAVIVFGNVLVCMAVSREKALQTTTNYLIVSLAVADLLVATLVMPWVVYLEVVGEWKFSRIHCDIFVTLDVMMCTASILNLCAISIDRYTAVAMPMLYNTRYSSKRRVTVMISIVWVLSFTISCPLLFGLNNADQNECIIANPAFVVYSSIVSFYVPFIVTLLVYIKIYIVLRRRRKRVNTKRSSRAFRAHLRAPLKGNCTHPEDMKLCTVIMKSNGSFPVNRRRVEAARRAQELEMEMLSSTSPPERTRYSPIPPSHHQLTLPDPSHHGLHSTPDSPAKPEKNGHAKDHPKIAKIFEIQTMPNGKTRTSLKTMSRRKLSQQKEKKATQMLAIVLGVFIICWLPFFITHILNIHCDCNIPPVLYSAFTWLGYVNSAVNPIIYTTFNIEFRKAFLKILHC

D(1A) dopamine receptor [7] = target: T4, D(1A) dopamine receptor; assay: Binding affinity towards Dopamine receptor D1 by displacement of [3H]SCH-23,390
D(2) dopamine receptor [8] = target: T5, D(2) dopamine receptor; assay: Compound was evaluated for the binding affinity towards Dopamine receptor D2 by displacement of […].
[9] = target: T1, 5-hydroxytryptamine receptor 1B; assay: Compound was evaluated for the binding affinity towards 5-hydroxytryptamine 1B receptor by displacement of […].
D(1A) dopamine receptor [10] = target: T4, D(1A) dopamine receptor; assay: Compound was evaluated for the Dopamine receptor D1 by displacement of [3H]SCH-23390.

T1 sequence (P28222 whole entry): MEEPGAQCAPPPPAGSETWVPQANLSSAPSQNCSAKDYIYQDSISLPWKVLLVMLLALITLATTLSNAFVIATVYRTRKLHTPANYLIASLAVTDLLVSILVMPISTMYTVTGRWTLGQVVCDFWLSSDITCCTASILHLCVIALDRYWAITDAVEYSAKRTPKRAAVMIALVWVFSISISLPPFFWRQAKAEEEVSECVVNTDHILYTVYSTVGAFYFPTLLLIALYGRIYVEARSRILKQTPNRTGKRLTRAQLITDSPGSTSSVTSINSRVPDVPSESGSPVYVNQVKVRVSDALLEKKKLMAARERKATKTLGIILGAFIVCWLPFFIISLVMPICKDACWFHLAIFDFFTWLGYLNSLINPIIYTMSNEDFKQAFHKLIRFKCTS
5-hydroxytryptamine receptor 2A, sequence (P28223 whole entry): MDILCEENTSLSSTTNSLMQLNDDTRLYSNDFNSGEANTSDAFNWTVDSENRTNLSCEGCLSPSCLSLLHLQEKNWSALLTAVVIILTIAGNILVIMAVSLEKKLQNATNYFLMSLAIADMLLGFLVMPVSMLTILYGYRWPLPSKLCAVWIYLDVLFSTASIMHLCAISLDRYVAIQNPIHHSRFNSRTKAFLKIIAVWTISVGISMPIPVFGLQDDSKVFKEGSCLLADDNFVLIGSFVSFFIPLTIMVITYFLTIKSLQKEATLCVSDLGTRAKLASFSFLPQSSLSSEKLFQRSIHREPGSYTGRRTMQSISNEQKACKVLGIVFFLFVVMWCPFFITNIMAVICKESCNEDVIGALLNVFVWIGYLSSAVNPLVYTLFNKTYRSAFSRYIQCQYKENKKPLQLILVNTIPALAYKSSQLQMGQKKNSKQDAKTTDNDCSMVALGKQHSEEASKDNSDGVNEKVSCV

| SMILES | pIC50 [1] | pIC50 [2] | pIC50 [3] | pIC50 [4] | pIC50 (D(1A) dopamine receptor [5]) | pIC50 (D(2) dopamine receptor [6]) | pIC50 (D(1A) dopamine receptor [7]) | pIC50 (D(2) dopamine receptor [8]) | pIC50 [9] | pIC50 (D(1A) dopamine receptor [10]) |
| --- | --- | --- | --- | --- | --- | --- | --- | --- | --- | --- |
| CCCN(CCC)CC1COc2cccc(OC)c2C1 (stereo unspecified) | 4.64 | 4.80 | 6.63 | 4.47 | 4.46 | 5.59 |  |  |  |  |
| COc1cccc2c1CC1(CCCN1CCCCN1C(=O)CC3(CCCC3)CC1=O)CO2 (stereo unspecified) | 5.42 |  | 7.97 |  |  |  | < 5.00 | 5.96 | 5.18 |  |
| CCCN1CCN(CCCCN2C(=O)CC3(CCCC3)CC2=O)CC12COc1cccc(OC)c1C2 (stereo unspecified) | 5.80 | 4.95 | 4.80 |  |  |  |  |  |  |  |
| O=C1CC2(CCCC2)CC(=O)N1CCCCNCC1COc2ccccc2C1 (stereo unspecified) | 5.16 | 7.25 | 8.20 |  |  | 7.17 | 5.48 |  |  |  |
| CCCN(CCCCN1C(=O)CC2(CCCC2)CC1=O)C1COc2cccc(OC)c2C1 (stereo unspecified) |  | 6.00 |  |  |  | 8.00 |  |  |  | 4.40 |
| CCCN1CCN(Cc2ccccc2)CC12COc1cccc(OC)c1C2 (stereo unspecified) | 4.45 | 4.61 | 4.80 |  |  |  |  |  |  |  |
| CCCN(CCC)CC1(N(CCC)CCC)COc2cccc(OC)c2C1 (stereo unspecified) | 3.86 | 3.67 | 5.38 |  |  |  |  |  |  |  |
| COc1cccc2c1CC(CNCCCCN1C(=O)CC3(CCCC3)CC1=O)CO2 (stereo unspecified) | 5.52 | 7.31 | 9.89 |  |  | 7.53 | 6.08 |  |  |  |
| CCCN(CCCCN1C(=O)CC2(CCCC2)CC1=O)CC1COc2cccc(OC)c2C1 (stereo unspecified) | 5.13 | 5.11 | 6.29 |  |  | 5.75 | 4.86 |  |  |  |
| CCCN1CCN(CCC)C2(COc3cccc(OC)c3C2)C1 (stereo unspecified) | < 4.00 | 5.00 | 5.52 |  |  |  |  |  |  |  |

From ChEMBL document CHEMBL1129704, “Synthesis, biological activity and quantitative structure-activity relationships of N-substituted-3,4-dihydro-2H-1-benzopyran derivatives” (Bioorg Med Chem Lett, 1996)
